Test results from publication PMC7520419 (The AAPS Journal, 2020).
Converted amounts (≈) assume the structure as drawn. Like-named read-outs stand apart in the source and are kept apart here. Blank lines part the entries; values can stand above or below the compound they belong to.

Tests used:
[1] = cited from earlier work; for Observed AUC(0-inf) Fasted / Observed Cmax Fasted / Observed AUC(0-inf) Fed / Observed Cmax Fed / Observed AUC Ratios (Fed/Fasted) / Observed Cmax Ratios (Fed/Fasted): ref published clinical data (Table I)
[2] = not generated within this working group; ref Table I; cited from earlier work
[3] = Solubility measurement in biorelevant media (FaSSIF-V2, FeSSIF-V2); settings: 37 °C, thermodynamic from solid
[4] = PBPK food effect modeling (Simcyp V17.1 and/or GastroPlus V9.5; Model 1 / Model 2); design: species or system human
[5] = Effective human jejunum permeability (Peff,man) used in the PBPK model; type: in vitro ADME; settings: human, 1 h
Description: Permeation rates of the compounds, including reference compounds, were measured in the apical-to-basolateral (AB) direction. The donor and receiver wells were sampled immediately after application of the compound to the donor well to determine baseline concentrations, and again after 1 h. Quantification was done using high-performance liquid chromatography combined with mass spectrometry (HPLC-MS/MS) analysis and monolayer integrity was verified by analyzing the receiver samples for LuY fluorescence in a plate reader.

[6] = design: method as in Table I reference column; settings: not generated within this working group; ref Table I; cited from earlier work
Caco-2 = settings: not generated within this working group; ref Table I; cited from earlier work
[7] = clinically observed PK change (AUC, Cmax) fed vs fasted, compiled by literature search
[8] = FaSSIF-V2 (fasted state simulated intestinal fluid), FaSSIF solubility
[9] = FeSSIF-V2 (fed state simulated intestinal fluid), FeSSIF solubility
[10] = direction, AUC and/or Cmax ratio fed to fasted, BE criteria 0.8–1.25, ref drug label

SMILES: CC(C)NC[C@@H](O)c1ccc(NS(C)(=O)=O)cc1 [d-Sotalol]
Observed AUC(0-inf) Fasted ([1]; Model 1): 15500 ng·h/mL | Observed Cmax Fasted ([1]; Model 1): 1200 ng/mL | Observed AUC(0-inf) Fed ([1]; Model 1): 12600 ng·h/mL | Food Effect [1, 7]: None (none if no significant change in AUC and Cmax with food) | Solubility at pH 6.5 [2]: 15,800^^ μg/ml | pKa (b, basic) (pKa): 9.72 | pKa (pKa; pKa (a, acidic)): 8.28

SMILES: CCC(C)n1ncn(-c2ccc(N3CCN(c4ccc(OCC5COC(Cn6cncn6)(c6ccc(Cl)cc6Cl)O5)cc4)CC3)cc2)c1=O (stereo not drawn) [Itraconazole]
solubility [3, 8]: 1120 µg/mL (≈ 1590 µM) | solubility [3, 9]: 3620 µg/mL (≈ 5130 µM) | Observed AUC(0-inf) Fasted ([1]; Model 1): 1880 ng·h/mL | Observed Cmax Fasted ([1]; Model 1): 140 ng/mL | Observed AUC(0-inf) Fed ([1]; Model 1): 3120 ng·h/mL | Observed Cmax Fed ([1]; Model 1): 239 ng/mL | Observed AUC Ratios (Fed/Fasted) ([1]; Model 1): 1.66 | Observed Cmax Ratios (Fed/Fasted) ([1]; Model 1): 1.71 | Observed AUC(0-inf) Fasted ([1]; Model 2): 1880 ng·h/mL | Observed Cmax Fasted ([1]; Model 2): 140 ng/mL | Observed AUC(0-inf) Fed ([1]; Model 2): 3120 ng·h/mL | Observed Cmax Fed ([1]; Model 2): 239 ng/mL | Observed AUC Ratios (Fed/Fasted) ([1]; Model 2): 1.66 | Observed Cmax Ratios (Fed/Fasted) ([1]; Model 2): 1.71 | Food Effect [1, 7]: Positive (positive if the ratio of fed > fasted) | Food Effect [1, 10]: Positive (positive if the ratio of fed > fasted) | AUC Ratio of Ratios (Sim'd / Obs'd) ([4]; Model 1): 0.82 | Cmax Ratio of Ratios (Sim'd / Obs'd) ([4]; Model 1): 1.03 | AUC Ratio of Ratios (Sim'd / Obs'd) ([4]; Model 2): 1.00 | Cmax Ratio of Ratios (Sim'd / Obs'd) ([4]; Model 2): 1.02 | pKa (pKa; pKa (b, basic)): 4.28 | Effective permeability [5]: 990 ×10⁻⁶ cm/s

SMILES: CN/C(=N/CCSCc1nc[nH]c1C)NC#N [Cimetidine]
solubility [3, 8]: 22000 µg/mL (≈ 87200 µM) | solubility [3, 9]: 21500 µg/mL (≈ 85200 µM) | Observed AUC(0-inf) Fasted ([1]; Model 1): 4880 ng·h/mL | Observed Cmax Fasted ([1]; Model 1): 900 ng/mL | Observed AUC(0-inf) Fed ([1]; Model 1): 4150 ng·h/mL | Observed Cmax Fed ([1]; Model 1): 810 ng/mL | Observed AUC Ratios (Fed/Fasted) ([1]; Model 1): 0.85 | Observed Cmax Ratios (Fed/Fasted) ([1]; Model 1): 0.90 | Observed AUC(0-inf) Fasted ([1]; Model 2): 5350 ng·h/mL | Observed Cmax Fasted ([1]; Model 2): 890 ng/mL | Observed AUC(0-inf) Fed ([1]; Model 2): 4580 ng·h/mL | Observed Cmax Fed ([1]; Model 2): 800 ng/mL | Observed AUC Ratios (Fed/Fasted) ([1]; Model 2): 0.86 | Observed Cmax Ratios (Fed/Fasted) ([1]; Model 2): 0.90 | Food Effect [1, 7]: None (none if no significant change in AUC and Cmax with food) | AUC Ratio of Ratios (Sim'd / Obs'd) ([4]; Model 1): 1.14 | Cmax Ratio of Ratios (Sim'd / Obs'd) ([4]; Model 1): 0.87 | AUC Ratio of Ratios (Sim'd / Obs'd) ([4]; Model 2): 1.19 | Cmax Ratio of Ratios (Sim'd / Obs'd) ([4]; Model 2): 1.10 | Apparent permeability (Caco-2) (Caco-2): 5.4 (Caco-2)^^ × 10^−6 cm/s | pKa (pKa; pKa (b, basic)): 6.9

SMILES: CCOC(=O)C1=C[C@@H](OC(CC)CC)[C@H](NC(C)=O)[C@@H](N)C1 [Oseltamivir]
Observed AUC(0-inf) Fasted ([1]; Model 1): 6220 ng·h/mL | Observed Cmax Fasted ([1]; Model 1): 551 ng/mL | Observed AUC(0-inf) Fed ([1]; Model 1): 6070 ng·h/mL | Observed Cmax Fed ([1]; Model 1): 441 ng/mL | Observed AUC Ratios (Fed/Fasted) ([1]; Model 1): 0.98 | Observed Cmax Ratios (Fed/Fasted) ([1]; Model 1): 0.80 | Food Effect [1, 10]: None (none if no significant change in AUC and Cmax with food) | Solubility at pH 6.5 [2]: 25,000^^ μg/ml | AUC Ratio of Ratios (Sim'd / Obs'd) ([4]; Model 1): 1.09 | Cmax Ratio of Ratios (Sim'd / Obs'd) ([4]; Model 1): 1.34 | pKa (pKa; pKa (b, basic)): 7.7

SMILES: Cc1ccc(NC(=O)c2ccc(CN3CCN(C)CC3)cc2)cc1Nc1nccc(-c2cccnc2)n1 [Imatinib]
Food Effect [1, 10]: None (none if no significant change in AUC and Cmax with food) | pKa (b, basic) (pKa): 8.07 | pKa (pKa; pKa (b, basic)): 3.73 | Effective permeability [5]: 110 ×10⁻⁶ cm/s

The next lines start with results.

AUC Ratio of Ratios (Sim'd / Obs'd) ([4]; Model 1): 0.95 | Cmax Ratio of Ratios (Sim'd / Obs'd) ([4]; Model 1): 0.92 | AUC Ratio of Ratios (Sim'd / Obs'd) ([4]; Model 2): 0.99 | Cmax Ratio of Ratios (Sim'd / Obs'd) ([4]; Model 2): 1.00 | pKa (pKa; pKa (a, acidic)): 8.06 | Effective permeability [5]: 400 ×10⁻⁶ cm/s
SMILES: O=C1NC(=O)C(c2ccccc2)(c2ccccc2)N1 [Phenytoin]
Observed AUC(0-inf) Fasted ([1]; Model 1): 104000 ng·h/mL | Observed Cmax Fasted ([1]; Model 1): 4920 ng/mL | Observed AUC(0-inf) Fed ([1]; Model 1): 127000 ng·h/mL | Observed Cmax Fed ([1]; Model 1): 6950 ng/mL | Observed AUC Ratios (Fed/Fasted) ([1]; Model 1): 1.22 | Observed Cmax Ratios (Fed/Fasted) ([1]; Model 1): 1.41 | Observed AUC(0-inf) Fasted ([1]; Model 2): 104000 ng·h/mL | Observed Cmax Fasted ([1]; Model 2): 4920 ng/mL | Observed AUC(0-inf) Fed ([1]; Model 2): 127000 ng·h/mL | Observed Cmax Fed ([1]; Model 2): 6950 ng/mL | Observed AUC Ratios (Fed/Fasted) ([1]; Model 2): 1.22 | Observed Cmax Ratios (Fed/Fasted) ([1]; Model 2): 1.41 | Food Effect [1, 7]: Positive (positive if the ratio of fed > fasted) | Food Effect [1, 10]: Positive (positive if the ratio of fed > fasted) | food effect (FE) direction ([1]; ref drug label): positive FE | FaSSIF solubility [6]: 39.6^^ μg/ml | FeSSIF solubility [6]: 49.5^^ μg/ml | Solubility at pH 6.5 [2]: 31^^ μg/ml

solubility [3, 8]: 132 µg/mL (≈ 176 µM) | solubility [3, 9]: 1660 µg/mL (≈ 2210 µM) | Effective permeability [5]: 30 ×10⁻⁶ cm/s
SMILES: CC[C@H]1OC(=O)[C@H](C)[C@@H](O[C@H]2C[C@@](C)(OC)[C@@H](O)[C@H](C)O2)[C@H](C)[C@@H](O[C@@H]2O[C@H](C)C[C@H](N(C)C)[C@H]2O)[C@](C)(OC)C[C@@H](C)C(=O)[C@H](C)[C@@H](O)[C@]1(C)O [Clarithromycin]
Observed AUC(0-inf) Fasted ([1]; Model 1): 12600 ng·h/mL | Observed Cmax Fasted ([1]; Model 1): 1650 ng/mL | Observed AUC(0-inf) Fed ([1]; Model 1): 15700 ng·h/mL | Observed Cmax Fed ([1]; Model 1): 2510 ng/mL | Observed AUC(0-inf) Fasted ([1]; Model 2): 12600 ng·h/mL | Observed Cmax Fasted ([1]; Model 2): 1650 ng/mL | Observed AUC(0-inf) Fed ([1]; Model 2): 15700 ng·h/mL | Observed Cmax Fed ([1]; Model 2): 2510 ng/mL | Food Effect [1, 7]: Positive (positive if the ratio of fed > fasted)

solubility [3, 8]: 459 µg/mL (≈ 1040 µM) | AUC Ratio of Ratios (Sim'd / Obs'd) ([4]; Model 1): 1.51 | Cmax Ratio of Ratios (Sim'd / Obs'd) ([4]; Model 1): 1.70 | pKa (pKa; pKa (a, acidic)): 4.8 | pKa (pKa; pKa (b, basic)): 8.1
SMILES: Cc1c(F)cccc1NC(=O)Nc1ccc(Cl)c(S(=O)(=O)[C@H]2CCCNC2)c1O [Danirixin]
Observed AUC(0-inf) Fasted ([1]; Model 1): 10400 ng·h/mL | Observed Cmax Fasted ([1]; Model 1): 3020 ng/mL | Observed AUC(0-inf) Fed ([1]; Model 1): 6760 ng·h/mL | Observed Cmax Fed ([1]; Model 1): 1300 ng/mL | Observed AUC Ratios (Fed/Fasted) ([1]; Model 1): 0.65 | Observed Cmax Ratios (Fed/Fasted) ([1]; Model 1): 0.43 | Food Effect [1, 7]: Negative (negative if ratio fasted > fed) | Food Effect [1, 10]: Negative (negative if ratio fasted > fed)

AUC Ratio of Ratios (Sim'd / Obs'd) ([4]; Model 1): 0.92 | Cmax Ratio of Ratios (Sim'd / Obs'd) ([4]; Model 1): 1.23 | pKa (ionisation state in words) (pKa): Neutral
SMILES: CC(C)(CO)c1cc2cc(NC(=O)C3(c4ccc5c(c4)OC(F)(F)O5)CC3)c(F)cc2n1C[C@@H](O)CO [Tezacaftor]
Observed AUC(0-inf) Fasted ([1]; Model 1): 3970 ng·h/mL | Observed Cmax Fasted ([1]; Model 1): 2340 ng/mL | Observed AUC(0-inf) Fed ([1]; Model 1): 4360 ng·h/mL | Observed Cmax Fed ([1]; Model 1): 1890 ng/mL | Observed AUC Ratios (Fed/Fasted) ([1]; Model 1): 1.10 | Observed Cmax Ratios (Fed/Fasted) ([1]; Model 1): 0.81 | Food Effect [1, 7]: None (none if no significant change in AUC and Cmax with food) | Food Effect [1, 10]: None (none if no significant change in AUC and Cmax with food) | FaSSIF solubility [6]: 119^^ μg/ml | FeSSIF solubility [6]: 4783^^ μg/ml | Solubility at pH 6.5 [2]: 110^^ μg/ml | Apparent permeability (Caco-2) (Caco-2): 4.2 (Caco-2)^^ × 10^−6 cm/s
